In ChEMBL document CHEMBL3507680, “University of Dundee, Gates Library screen for HepG2 cell viability”:
Several values for one entry are separate records, joined by “and”; a condition that tells them apart may be missing. Identical values can stand only once.

test: Human HepG2 cell viability assay in 384 well format; assay type: toxicity, cell-based; design: dose 125 nL, time 70.5 hour; cytotoxicity at 70.5 h: concentration not given beside the values; settings: HepG2 cells, read-out: Inhibition

Point of comparison: `CN(C)C(=O)COc1ccccc1CN1CCCC2(C1)CN(C)C(=O)O2` (stereo not drawn), cytotoxicity at 70.5 h -7.63%. Against it:
- O=C(c1n[nH]cc1Cl)N1CCSCC1 — lower, -9.46%
- CN1CSC[C@H]1C(=O)N1CCC(Cc2ccccc2F)CC1 — higher, -4.33%
- COc1ccc(-c2cnc(NC(C)=O)[nH]2)cc1 — higher, 10.1%
- CCn1nc(C)cc1C(=O)N1CCCN(CCCc2ccccc2)CC1 — higher, 1.03%
- Cc1nnc(NCc2ccc(SC(F)F)cc2)o1 — higher, 14.2%
- NC(=O)C1(CNC(=O)CCc2ccc(Cl)s2)CCOCC1 — lower, -7.77%
- CN1C[C@@H](C(=O)NC2CC2)[C@@]2(COc3ccc(F)cc3C2=O)C1 — higher, 12.2%
- O=C(CCc1ccsc1)N1CCCCC1Cn1cccn1 (stereo not drawn) — lower, -9.96%
- O=C(N1CCC(Oc2ccncc2)C1)C1(c2ccccc2F)CC1 (stereo not drawn) — lower, -16.9%
- Cc1ccc(C(=O)NCC(c2cnn(C)c2)N(C)C)c(O)c1 (stereo not drawn) — higher, 25.6%
- Cc1nnc(C(C)N2CCCN(Cc3ccc(C#N)cc3)CC2)o1 (stereo not drawn) — higher, -2.73%
- O=C1N[C@H]2OCCC[C@H]2[C@H](c2ccccc2)N1 — lower, -12.3%
- CS(=O)(=O)N1C[C@H](C(=O)Nc2cccnc2)[C@@H]2CCO[C@@H]2C1 — higher, -4.86%
- COc1ccccc1C(C)(C)NC(=O)NCCC(=O)NC1CCCC1 — lower, -12.5%
- CCOCCCC(=O)N1CCCC1c1nc(-c2ccccc2F)c[nH]1 (stereo not drawn) — higher, -2.77%
- O=C(NCCc1ccccc1)N1CCCCC1C1OCCO1 (stereo not drawn) — higher, -1.28%
- CCOCC1CN(Cc2ccc3c(c2)OCO3)Cc2nccn2C1 (stereo not drawn) — higher, 0.869%
- CC(C)CNC(=O)c1ccc2c(=O)n(-c3ccccc3)cnc2c1 — higher, -5.61%
- CNCc1ccc([C@@H]2CN(C(C)=O)C[C@H]2C(=O)N(C)C)cc1 — higher, -1.57%
- CCc1c(C)nc2cc(C3CCN(Cc4cccc(F)c4)C3)nn2c1O (stereo not drawn) — lower, -7.92%
- CCCc1n[nH]c(C2CN(C(=O)CCn3ccccc3=O)CCO2)n1 (stereo not drawn) — higher, -2.27%
- O=C(c1cccc(Cl)c1)N1CC[C@H]2[C@H]1CCN2CC1CC1 — lower, -9.45%
- CCc1noc(CN(C)CCC(=O)Nc2ccc(C#N)c(Cl)c2)n1 — higher, 0.733%
- NC(=O)C1CCN(S(=O)(=O)c2cnn(-c3ccccc3)c2)C1 (stereo not drawn) — higher, -3.49%
- O=C(O)[C@@H]1CN(Cc2ccc(-c3cc[nH]n3)s2)C[C@H]1C1CC1 — higher, -4.26%
- Cc1nc2n(n1)CC(NCC(=O)NCC1(c3ccccc3)CC1)CC2 (stereo not drawn) — higher, -3.45%
- COc1ccc(-c2csc(-c3cccc(C(=O)O)c3)n2)cc1OC — lower, -9.98%
- CCCN(CC)Cc1ccc(C(=O)NCC2COCCO2)c(=O)[nH]1 (stereo not drawn) — higher, -6.16%
- Cc1oncc1C(=O)N1CC[C@H]2[C@@H]1CCC(=O)N2CC1CCOCC1 — higher, -1.77%
- CN(Cc1ccncc1)C(CO)c1cccc(F)c1 (stereo not drawn) — lower, -27.2%
- CCOc1ccc(CN2C(=O)CC(C)(C(C)C)C2=O)nc1 (stereo not drawn) — higher, 0.245%
- CC(C)NC(=O)O[C@H]1COCCN(c2nc3ccccc3s2)C1 — higher, -5.43%
- CCc1cc(CNC(=O)NCc2ccc(N3CCCCC3)cc2)on1 — lower, -7.79%
- OCC1CCCN1c1cc(NCCc2ccccn2)ncn1 (stereo not drawn) — higher, 14.5%
- CC(C)Cc1noc(CN2CCN(C(=O)c3ccco3)CC2)n1 — lower, -9.38%
- CC1(C)COCCN1C(=O)Cc1cc(Cl)c2c(c1)OCCO2 — higher, 0.881%
- CC(C)n1ccc(CN2CCOC(CNc3cccnn3)C2)n1 (stereo not drawn) — higher, 3.22%
- COc1ccccc1OCCC(=O)NC1CCc2nc(C)cn2C1 (stereo not drawn) — higher, -3.16%
- CN1CCC(C(=O)N2CCCN(c3cccnn3)CC2)C1 (stereo not drawn) — lower, -14.6%
- O=C1CCN(C(=O)c2csc(-c3ccc(C(F)(F)F)cc3)n2)CCN1 — lower, -8.28%
- Cc1ccsc1C(=O)N1CC(C(=O)N2CCCC2)C2(CCOCC2)C1 (stereo not drawn) — higher, 0.96%
- c1ccc(-c2nnn3c2COC(CNCC2CC2)C3)cc1 (stereo not drawn) — higher, -0.253%
- Cc1ccc(-c2cc(CN(CC(N)=O)CC(C)C)on2)cc1 — higher, -2.81%
- Cc1c(C)n(CC(O)CN2CCOCC2)c2c(Cl)cccc12 (stereo not drawn) — higher, 11.2%
- COc1cccc(N2CCN(C(=O)c3noc4c3CCCCC4)CC2)c1 — higher, -4.22%
- c1ccc(-c2noc(CN3CCc4c(ncn4C4CC4)C3)n2)nc1 — higher, -6.92%
- CC(C)(C)n1ncc2c1NC(=O)CC2c1ccc(OCC(N)=O)cc1 (stereo not drawn) — lower, -10.7%
- Cc1cnc(CN2CCCC(c3cc(C(N)=O)[nH]n3)C2)o1 (stereo not drawn) — higher, 9.27%
- CCC(CO)N(C/C(C)=C/c1ccco1)Cc1ccccn1 (stereo not drawn) — higher, -6%
- CCNc1ncc(C(=O)N(C)Cc2nc3ccccc3n2C)cn1 — higher, -2.99%
- CCSc1ncc(-c2nccn2CCN(C)C)cn1 — higher, 8.9%
- Cc1cc(C(F)(F)F)nn1CC(C)C(=O)NC(C)C (stereo not drawn) — higher, 19.9%
- CSc1ccc(C(CC(=O)O)NC(=O)c2cc(C)on2)cc1 (stereo not drawn) — higher, 0.955%
- CCn1nc(C)c2nc(C(C)C)nc(NCC(C)O)c21 (stereo not drawn) — higher, -6.78%
- CC(=O)N1CCC[C@H]1C(=O)NCCOc1cccc(Cl)c1 — higher, 0.931%
- COCCOc1cccc(CNCc2ccc(-n3cncn3)nc2)c1 — higher, -4.01%
- O=C(CCN1CCCC1c1ccccn1)N1CCc2ccccc2C1 (stereo not drawn) — lower, -16.1%
- Cc1ncsc1CCN1CCC(N(C)Cc2noc(C(C)C)n2)C1 (stereo not drawn) — higher, 6.17%
- Cc1cc(NC(=O)c2ccc(N3CCOCC3)c(C)c2)[nH]n1 — higher, 8.26%
- COCC(O)CN1CCC(=O)N(CC2CC2)Cc2ccccc21 (stereo not drawn) — higher, -3.32%
- CN1CCCN(Cc2nc(Cc3ccccc3)n[nH]2)CC1 — higher, -3.87%
- CC(C#N)CSc1ccccc1NCC(=O)NC(=O)NC(C)(C)C (stereo not drawn) — higher, -2.56%
- O=c1oc(-c2ccc(F)cc2)nn1CCc1ccncc1 — lower, -9.83%
- Cc1cc(N2CCCN(C(=O)Cc3cccnc3)CC2)ccn1 — higher, -6.53%
- CC(=O)N1CCC2(CCCN(C(=O)c3ccc(Cl)c(C(F)(F)F)c3)C2)C1 (stereo not drawn) — lower, -14.2%
- Cc1cc(CN(C)CC2CCCCC2)no1 — higher, -2%
- N#Cc1cccc(C(=O)N2CC[C@H]3[C@H]2CCN3CC2CC2)c1 — higher, 19.2%
- CN(C(=O)CN1CCCC1=O)C1CCCN(C2Cc3ccccc3C2)C1 (stereo not drawn) — higher, -3.18%
- c1cncc(CN2Cc3nccn3CC(Cn3cccn3)C2)c1 (stereo not drawn) — higher, -6.13%
- COc1cccc(OCc2cc(C(=O)NC[C@H]3CCCN3)n[nH]2)c1 — higher, -4.69%
- O=S(=O)(C1CC1)N1CCO[C@H]2[C@H](OCC3CC3)CC[C@@H]21 — higher, 16.9%
- COCCNC(=O)NC(C)COc1ccc(F)cc1F (stereo not drawn) — higher, -0.107%
- Cc1ccc(NCc2cccc3cn[nH]c23)cc1OC1CCOC1 (stereo not drawn) — higher, -0.654%
- Cc1cc(C)nc(N2CCC(OCCN3CCCCC3)C2)n1 (stereo not drawn) — higher, 8.57%
- Cc1nc(CN2CC(CCCc3ccccn3)(C(=O)N(C)C)C2)co1 — higher, -1.84%
- Cc1csc(C2(NCC(O)COC(C)C)CCCC2)n1 (stereo not drawn) — lower, -11.4%
- Cc1nn(C)c(C)c1C1CCCN1Cc1cn2ccsc2n1 (stereo not drawn) — higher, -0.408%
- Cc1cc(C(=O)Nc2n[nH]c(C3CC3)n2)c2c(C)nn(C)c2n1 — higher, 25.6%
- Cc1nnc(N2C[C@@H](OCC3CCCC3)[C@H]3OCCC[C@H]32)s1 — higher, -5.21%
- c1cc(CN2CCO[C@H]3[C@H](OCC4CCOCC4)CC[C@@H]32)co1 — lower, -9.4%
- CN(C)[C@@H]1CO[C@H](CNC(=O)Nc2ccccc2)[C@H]1O — higher, -1.04%
- CCn1ncc2c1CCCC2NCc1ccc(C)s1 (stereo not drawn) — higher, -4.74%
- CCCC1SCCN1C(=O)c1ccc(-n2ncc(C#N)c2N)cc1 (stereo not drawn) — higher, -3.53%
- CN(C)c1ccc(NC(=O)N2CCc3sccc3C2)cn1 — higher, 4.85%
- CC(C)N1CCC(C(=O)N(C)CC(=O)c2ccc(O)cc2)CC1 — lower, -17.5%
- CC(C)NC(=O)N1CCC2(COCc3cnc(N4CCOCC4)nc32)C1 (stereo not drawn) — higher, 2.23%
- CCNC(=O)CN1CCC(c2cc(OC)cc(OC)c2)C1 (stereo not drawn) — lower, -10.7%
- Cc1noc(C)c1CN1CCCC(CN(C(=O)OC(C)(C)C)C(C)C)C1 (stereo not drawn) — higher, -3.37%
- CC(CNC(=O)N1CCNC(=O)CC1)Cc1cccs1 (stereo not drawn) — higher, 0.139%
- CN1CCCC(c2cncc(C(=O)NCc3ccccc3Cl)n2)C1 (stereo not drawn) — lower, -7.68%
- Cc1ccc(N2CCO[C@H]3CN(Cc4ccc(F)cc4)C[C@H]32)nn1 — higher, -7.45%
- O=C(c1ccsc1)N1CCc2c(COCC3CC3)cncc2C1 — higher, 18.9%
- Cc1noc(C)c1CN1CC2(CCN(C(=O)c3ccoc3C)C2)CC1=O (stereo not drawn) — higher, -6.54%
- CC(C)c1ccc(O)c(C(=O)NCc2nncn2C)c1 — higher, -6.12%
- O=C(c1ncn2c1CNS(=O)(=O)c1ccccc1-2)N1CCOCC1 — higher, 13.4%
- CCOCC1CN(S(=O)(=O)c2ccccc2)Cc2nccn2C1 (stereo not drawn) — higher, 13.5%
- Cn1ccc(CN2CCCC23CCN(Cc2cccc(F)c2)CC3)n1 — higher, 0.351%
- O=C(CCN1CCc2cncnc2C1)N1CCc2sccc2C1 — higher, -1.14%
- Cc1cc(CNC(=O)N2CCN(c3ccccc3)CC2)no1 — higher, -3.89%
- CSCCCN(CCN1CCOCC1)Cc1ccco1 — lower, -9.79%
- Cc1cnc(N2CCN(C(C)C(N)=O)CC2)nc1 (stereo not drawn) — higher, -1.41%
- NC(=O)CC1CCCN(c2cncc(OCc3ccccc3)n2)C1 (stereo not drawn) — higher, 21.3%
- CN(Cc1cc[nH]n1)C(C(=O)O)c1ccc(Cl)cc1 (stereo not drawn) — higher, -4.85%
- CCN1CC2(CC1=O)CN(Cc1ccoc1)CCN(C(=O)C(C)C)C2 (stereo not drawn) — lower, -20.2%
- Cc1nc(CN2CCO[C@H]3[C@@H](OCc4ccccn4)CC[C@@H]32)cs1 — lower, -23.4%
- N#Cc1cccc(C(=O)N2C[C@H](CO)C[C@H](CN3CCCC3)C2)c1 — higher, 2.99%
- CC(C)n1nnc(CC(=O)NCC2(c3ccccc3F)CCOCC2)n1 — lower, -8.63%
- CC(NC(=O)NC1CCN(Cc2ccncc2)CC1)c1ccc(F)cc1 (stereo not drawn) — lower, -13.2%
- O=C1CC2(CCN(Cc3ccccn3)C2)CN1c1cncnc1 (stereo not drawn) — lower, -16.1%
- COc1ccc(NC(C)C(=O)N2CCCC2)cn1 (stereo not drawn) — higher, -1.03%
- CN(C)CC(c1ccccc1)N(C)C(=O)c1cccc(NCC(=O)O)c1 (stereo not drawn) — higher, -0.106%

same assay, conditions: hepg2, 70.5 h, 70.5 h

With `CC1=Nc2c(c(=O)[nH]n2C2CCCC2)C(c2ccc(C(=O)O)cc2)S1` (stereo not drawn) the Inhibition was -12.72% and -17.34%.
